≈ marks a conversion by molar mass, not a printed value.
Legend:
[1] = system: Acinetobacter baumannii; test: Antibacterial activity against Acinetobacter baumannii NCTC 13420 assessed as bacterial growth inhibition by CLSI protocol based assay; assay type: functional
[2] = system: Klebsiella pneumoniae; test: Antibacterial activity against Klebsiella pneumoniae ATCC 700603 assessed as bacterial growth inhibition by CLSI protocol based assay; assay type: functional
[3] = system: Pseudomonas aeruginosa; test: Antibacterial activity against Pseudomonas aeruginosa ATCC 27853 assessed as bacterial growth inhibition by CLSI protocol based assay; assay type: functional
[4] = system: Escherichia coli; test: Antibacterial activity against Escherichia coli W4573 assessed as bacterial growth inhibition by CLSI protocol based assay; assay type: functional
[5] = system: Escherichia coli; test: Antibacterial activity against Escherichia coli N43 assessed as bacterial growth inhibition by CLSI protocol based assay; assay type: functional
[6] = system: Staphylococcus aureus; test: Antibacterial activity against Staphylococcus aureus ATCC 29213 assessed as bacterial growth inhibition by CLSI protocol based assay; assay type: functional
[7] = Lipophilicity, logD of the compound by shake flask assay; assay type: physicochemical; settings: octanol/water
[8] = target: DNA gyrase (Escherichia coli, UniProt P0AES4+P0AES6); test: Inhibition of Escherichia coli DNA gyrase supercoiling activity; assay type: protein-complex assay
[9] = Inhibition of Escherichia coli topoisomerase 4 assessed as reduction in decatenation
[10] = Cytotoxicity against human HepG2 cells assessed as reduction in cell viability for 24 hrs by Celltiter-Glo assay; assay type: toxicity, cell-based
[11] = target: Voltage-gated inwardly rectifying potassium channel KCNH2 (Homo sapiens, UniProt Q12809); test: Inhibition of human ERG by Ionworks electrophysiology assay; assay type: toxicity
[12] = Intrinsic clearance in mouse liver microsomes in presence of NADPH and measured upto 45 mins; assay type: ADME, Microsome; settings: read-out: CLH
[13] = Intrinsic clearance in human liver microsomes in presence of NADPH and measured upto 45 mins; assay type: ADME, Microsome; settings: read-out: CLH
[14] = Plasma protein binding in mouse assessed as free fraction by equilibrium dialysis assay; assay type: ADME, cell-free
[15] = target: DNA topoisomerase 2-alpha (Homo sapiens, UniProt P11388); test: Inhibition of human topoisomerase 2 assessed as reduction in decatenation
[16] = Kinetic solubility of compound; assay type: physicochemical; settings: read-out: Kinetic_solubility
[17] = system: Escherichia coli; test: Resistance development in Escherichia coli ATCC25922 assessed as spontaneous resistance frequency at 4 times MIC by resistance development assay; assay type: functional
[18] = target: hERG (KCNH2) (Homo sapiens, UniProt Q12809); test: Inhibition of human ERG at 100 uM by Ionworks electrophysiology assay; assay type: toxicity
Sequence of hERG (KCNH2) (Q12809 whole entry): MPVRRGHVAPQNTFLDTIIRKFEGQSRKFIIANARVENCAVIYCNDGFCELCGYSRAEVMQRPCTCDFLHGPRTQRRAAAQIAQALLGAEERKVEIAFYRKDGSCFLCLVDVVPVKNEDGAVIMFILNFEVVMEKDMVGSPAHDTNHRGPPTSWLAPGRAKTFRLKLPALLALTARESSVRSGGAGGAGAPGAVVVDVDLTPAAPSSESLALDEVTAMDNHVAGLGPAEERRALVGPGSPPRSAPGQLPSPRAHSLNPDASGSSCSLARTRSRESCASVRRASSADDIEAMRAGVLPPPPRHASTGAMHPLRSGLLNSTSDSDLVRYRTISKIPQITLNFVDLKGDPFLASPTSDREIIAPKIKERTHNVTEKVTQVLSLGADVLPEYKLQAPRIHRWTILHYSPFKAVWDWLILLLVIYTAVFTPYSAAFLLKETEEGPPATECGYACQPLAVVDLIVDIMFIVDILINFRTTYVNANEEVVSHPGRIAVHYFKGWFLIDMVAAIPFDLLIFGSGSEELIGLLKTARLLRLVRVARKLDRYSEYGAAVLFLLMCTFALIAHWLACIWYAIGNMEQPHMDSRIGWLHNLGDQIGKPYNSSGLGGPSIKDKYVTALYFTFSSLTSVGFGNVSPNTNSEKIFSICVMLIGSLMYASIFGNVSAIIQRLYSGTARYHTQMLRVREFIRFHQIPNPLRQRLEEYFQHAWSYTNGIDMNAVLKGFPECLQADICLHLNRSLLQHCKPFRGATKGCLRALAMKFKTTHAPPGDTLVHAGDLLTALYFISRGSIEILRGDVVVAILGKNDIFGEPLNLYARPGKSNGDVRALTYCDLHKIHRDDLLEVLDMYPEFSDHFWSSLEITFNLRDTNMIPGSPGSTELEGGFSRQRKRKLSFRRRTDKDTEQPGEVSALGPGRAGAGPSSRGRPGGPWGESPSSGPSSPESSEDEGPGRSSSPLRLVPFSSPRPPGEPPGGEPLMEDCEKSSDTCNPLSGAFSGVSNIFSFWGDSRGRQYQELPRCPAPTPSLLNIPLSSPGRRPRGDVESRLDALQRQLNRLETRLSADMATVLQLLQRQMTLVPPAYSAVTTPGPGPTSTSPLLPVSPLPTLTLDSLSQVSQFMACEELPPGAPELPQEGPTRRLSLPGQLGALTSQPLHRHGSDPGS

Sequence of Voltage-gated inwardly rectifying potassium channel KCNH2 (Q12809 whole entry): as above
Sequence of DNA topoisomerase 2-alpha (P11388 whole entry): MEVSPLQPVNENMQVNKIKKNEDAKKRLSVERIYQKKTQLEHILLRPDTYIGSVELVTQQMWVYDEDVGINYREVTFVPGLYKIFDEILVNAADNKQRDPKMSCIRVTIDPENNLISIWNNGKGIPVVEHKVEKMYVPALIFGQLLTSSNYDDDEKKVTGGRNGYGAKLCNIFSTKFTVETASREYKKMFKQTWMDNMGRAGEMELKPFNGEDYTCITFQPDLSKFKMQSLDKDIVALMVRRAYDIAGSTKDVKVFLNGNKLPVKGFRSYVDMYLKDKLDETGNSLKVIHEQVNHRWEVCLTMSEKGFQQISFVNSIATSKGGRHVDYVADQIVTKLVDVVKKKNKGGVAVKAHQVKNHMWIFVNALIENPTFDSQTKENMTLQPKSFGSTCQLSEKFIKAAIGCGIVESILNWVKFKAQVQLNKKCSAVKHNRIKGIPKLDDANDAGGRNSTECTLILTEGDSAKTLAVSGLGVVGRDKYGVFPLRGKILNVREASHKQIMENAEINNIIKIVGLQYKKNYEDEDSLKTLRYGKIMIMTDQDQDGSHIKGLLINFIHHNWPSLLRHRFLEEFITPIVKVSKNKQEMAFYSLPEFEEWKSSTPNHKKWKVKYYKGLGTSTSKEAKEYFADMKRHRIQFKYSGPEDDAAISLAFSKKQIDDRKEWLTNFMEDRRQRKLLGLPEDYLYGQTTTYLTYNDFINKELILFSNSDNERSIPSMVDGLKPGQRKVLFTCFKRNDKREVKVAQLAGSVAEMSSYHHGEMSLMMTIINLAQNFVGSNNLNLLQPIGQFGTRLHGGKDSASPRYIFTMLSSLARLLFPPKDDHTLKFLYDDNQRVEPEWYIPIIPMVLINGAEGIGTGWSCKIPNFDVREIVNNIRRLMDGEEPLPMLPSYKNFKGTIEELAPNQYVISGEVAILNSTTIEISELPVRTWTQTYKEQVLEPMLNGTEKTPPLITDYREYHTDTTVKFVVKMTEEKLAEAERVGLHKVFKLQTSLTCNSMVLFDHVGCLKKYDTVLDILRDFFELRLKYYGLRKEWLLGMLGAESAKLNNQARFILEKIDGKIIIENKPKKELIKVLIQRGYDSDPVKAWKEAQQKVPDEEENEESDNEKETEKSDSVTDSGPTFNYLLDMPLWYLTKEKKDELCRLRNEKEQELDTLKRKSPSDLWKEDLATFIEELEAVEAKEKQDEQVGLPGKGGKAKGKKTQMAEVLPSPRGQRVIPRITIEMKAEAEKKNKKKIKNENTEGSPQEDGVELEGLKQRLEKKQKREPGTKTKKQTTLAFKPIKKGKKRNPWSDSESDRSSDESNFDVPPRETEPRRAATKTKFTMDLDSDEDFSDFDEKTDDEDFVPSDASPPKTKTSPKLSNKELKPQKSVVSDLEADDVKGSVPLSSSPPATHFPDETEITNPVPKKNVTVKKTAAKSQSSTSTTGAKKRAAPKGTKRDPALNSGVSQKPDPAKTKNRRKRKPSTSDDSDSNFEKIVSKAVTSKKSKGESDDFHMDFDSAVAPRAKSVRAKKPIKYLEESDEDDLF

Structure (SMILES)	MIC [1]	MIC [2]	MIC [3]	MIC [4]	MIC [5]	MIC [6]	logD [7]	IC50 [8]	IC50 [9]	IC50 at 24 h [10]	IC50 [11]	microsomal CLint [12]	microsomal CLint [13]	fraction unbound [14]	IC50 [15]	solubility kinetic [16]	Activity [17]	inhibition at 100 µM [18]
COc1ncc2ccc(=O)n(CCN[C@H]3CC[C@H]4[C@H](C3)OC(=O)N4c3ccc4c(n3)NC(=O)CO4)c2n1	3.2 µg/mL (≈ 6.31 µM)	> 64 µg/mL	> 64 µg/mL	32 µg/mL (≈ 63.1 µM)	1 µg/mL (≈ 1.97 µM)	2 µg/mL (≈ 3.94 µM)	1.79											
N#Cc1cnc2ccc(=O)n(CCN[C@H]3CC[C@H]4[C@H](C3)OC(=O)N4c3ccc4c(n3)NC(=O)CO4)c2c1	1 µg/mL (≈ 1.99 µM)	8 µg/mL (≈ 16 µM)	2 µg/mL (≈ 3.99 µM)	0.25 µg/mL (≈ 0.499 µM)	0.004 µg/mL (≈ 0.00798 µM)	0.06 µg/mL (≈ 0.12 µM)	0.79	0.09 µM	0.017 µM	> 128 µg/mL	> 100 µM	55 µL/min/mg	< 3 µL/min/mg	> 0.3	> 100 µM			
N#Cc1cnc2ccc(=O)n(CCCN[C@H]3CC[C@H]4[C@H](C3)OC(=O)N4c3ccc4c(n3)NC(=O)CO4)c2c1	2 µg/mL (≈ 3.88 µM)	8 µg/mL (≈ 15.5 µM)	2 µg/mL (≈ 3.88 µM)	0.25 µg/mL (≈ 0.485 µM)	0.015 µg/mL (≈ 0.0291 µM)	0.5 µg/mL (≈ 0.97 µM)	0.5	0.34 µM	4.24 µM	> 32 µg/mL	> 100 µM	< 3 µL/min/mg	< 3 µL/min/mg	> 0.3	> 100 µM	86 µM (≈ 44.3 µg/mL)	7.8 10^-8No_unit	
COc1cnc2ccc(=O)n(CCN[C@H]3CC[C@H]4[C@H](C3)OC(=O)N4c3ccc4c(n3)NC(=O)CO4)c2n1	0.12 µg/mL (≈ 0.236 µM)	2 µg/mL (≈ 3.94 µM)	1 µg/mL (≈ 1.97 µM)	0.12 µg/mL (≈ 0.236 µM)	0.004 µg/mL (≈ 0.00788 µM)	0.015 µg/mL (≈ 0.0296 µM)	1.37			> 128 µg/mL	9 µM							
COc1ccc2ccc(=O)n(CCN[C@H]3CC[C@H]4[C@H](C3)OC(=O)N4c3ccc4c(n3)NC(=O)CO4)c2c1	0.06 µg/mL (≈ 0.119 µM)	8 µg/mL (≈ 15.8 µM)	4 µg/mL (≈ 7.91 µM)	0.25 µg/mL (≈ 0.495 µM)	0.03 µg/mL (≈ 0.0593 µM)	0.008 µg/mL (≈ 0.0158 µM)	2.25			> 64 µg/mL								85%
COc1ccc2ccc(=O)n(CCN[C@H]3CC[C@H]4[C@H](C3)OC(=O)N4c3ncc4c(n3)NC(=O)CO4)c2n1	1 µg/mL (≈ 1.97 µM)	8 µg/mL (≈ 15.8 µM)	8 µg/mL (≈ 15.8 µM)	0.5 µg/mL (≈ 0.985 µM)	0.015 µg/mL (≈ 0.0296 µM)		0.9			> 128 µg/mL	> 32 µM							
O=C1COc2ccc(N3C(=O)O[C@H]4C[C@@H](NCCn5c(=O)ccc6ccc(C(=O)O)cc65)CC[C@@H]43)nc2N1	> 64 µg/mL	> 64 µg/mL	> 64 µg/mL	> 64 µg/mL	16 µg/mL (≈ 30.8 µM)	> 64 µg/mL	< 0.2											33%
O=C1COc2ccc(N3C(=O)O[C@H]4C[C@@H](NCCCn5c(=O)cnc6ccc(F)cc65)CC[C@@H]43)nc2N1	0.12 µg/mL (≈ 0.236 µM)	2 µg/mL (≈ 3.93 µM)	1 µg/mL (≈ 1.97 µM)	0.12 µg/mL (≈ 0.236 µM)	0.25 µg/mL (≈ 0.492 µM)	0.25 µg/mL (≈ 0.492 µM)	1.26			> 128 µg/mL	13 µM							
COc1cnc2ccc(=O)n(CCN[C@H]3CC[C@H]4[C@H](C3)OC(=O)N4c3ccc4c(n3)NC(=O)CO4)c2c1	1 µg/mL (≈ 1.97 µM)	8 µg/mL (≈ 15.8 µM)	2 µg/mL (≈ 3.95 µM)	0.25 µg/mL (≈ 0.494 µM)	≤ 0.008 µg/mL	0.03 µg/mL (≈ 0.0592 µM)	1.36	0.22 µM	0.1 µM	> 128 µg/mL	32 µM	62 µL/min/mg	35 µL/min/mg	0.25	> 100 µM	94 µM (≈ 47.6 µg/mL)		

Reference: ChEMBL document CHEMBL5143607, “Discovery and structure-activity relationships of a novel oxazolidinone class of bacterial type II topoisomerase inhibitors” (Bioorg Med Chem Lett, 2022)
